Source: US11331327B2, “Antibacterial use of halogenated salicylanilides” (UNION therapeutics A/S, priority 2014, dated 2022)
≈ marks a conversion by molar mass, not a printed value. Read-outs that look alike come from different tables or passages of the source.

Test system: S. aureus clinical isolates and S. aureus ATCC 29213
Test: MIC assay according to CLSI criteria, Example 2, S. aureus strains
Assay type: cell-based, Staphylococcus aureus
Conditions: for MIC: Staphylococcus aureus, read-out: MIC
Description: Strains were conserved in Luria Bertani (LB) Broth (S. aureus) or Brain Heart Infusion (BHI) (S. pyogenes) supplemented with glycerol 15% (v/v) at −80° C., and reactivated by isolation on LB (S. aureus) or BHI (S. pyogenes) agar plates. Strains were cultivated in Mueller Hinton (MH) Broth-cation adjusted (S. aureus) or BHI (S. pyogenes). All strains were cultivated aerobically (microaerobically for S. pyogenes strains) at 37° C.
Bacterial cultures were stopped in their exponential growth phase and plates were inoculated with the approximate concentration of 5×10^5 cells per well. Plates were incubated at 37° C. for 18 hours (S. aureus) or 24 hours (S. pyogenes).

[1] = ATCC29213, Staphylococcus aureus strains
[2] = S. aureus strains with MIC 0.5 μg/ml

O=C(Nc1ccc([N+](=O)[O-])cc1Cl)c1cc(Cl)ccc1O [Niclosamide, 5-chloro-N-(2-chloro-4-nitrophenyl)-2-hydroxybenz-amide]
MIC50 [1]: 0.25 µg/mL (≈ 0.764 µM)
MIC90 [1]: 0.5 µg/mL (≈ 1.53 µM)
MIC distribution (percentage of strains) [2]: 27%
MIC distribution (ratio of strains) [2]: (55/205)
MIC Range values (Staphylococcus aureus strains): 0.125 to 0.5 µg/mL
MIC (ATCC29213, all targeted S. aureus strains, including resistant strains): ≤ 0.5 µg/mL
MIC (ATCC29213, strain 9-1862936): 0.5 µg/mL (≈ 1.53 µM)
MIC (ATCC29213, strain 9-2625962): 0.5 µg/mL (≈ 1.53 µM)
MIC (ATCC29213, strain 9-2642158): 0.25 µg/mL (≈ 0.764 µM)
MIC (ATCC29213, strain 9-2955245): 0.25 µg/mL (≈ 0.764 µM)
MIC (ATCC29213, strain 9-26422166): 0.5 µg/mL (≈ 1.53 µM)
MIC (ATCC29213, strain 000040C): 0.5 µg/mL (≈ 1.53 µM)
MIC (ATCC29213, strain 000041C): 0.25 µg/mL (≈ 0.764 µM)
MIC (ATCC29213, strain 000274T): 0.25 µg/mL (≈ 0.764 µM)
MIC (ATCC29213, strain 114660U): 0.25 µg/mL (≈ 0.764 µM)
MIC (ATCC29213, strain 115015T): 0.5 µg/mL (≈ 1.53 µM)
MIC (ATCC29213, strain 115242C): 0.5 µg/mL (≈ 1.53 µM)
MIC (ATCC29213, strain 115263C): 0.25 µg/mL (≈ 0.764 µM)
MIC (ATCC29213, strain 115268C): 0.5 µg/mL (≈ 1.53 µM)
MIC (ATCC29213, strain 115273C): 0.5 µg/mL (≈ 1.53 µM)
MIC (ATCC29213, strain 115295C): 0.25 µg/mL (≈ 0.764 µM)
MIC (ATCC29213, strain 115303C): 0.5 µg/mL (≈ 1.53 µM)
MIC (ATCC29213, strain 115370U): 0.25 µg/mL (≈ 0.764 µM)
MIC (ATCC29213, strain 115427C): 0.25 µg/mL (≈ 0.764 µM)
MIC (ATCC29213, strain 115445C): 0.5 µg/mL (≈ 1.53 µM)
MIC (ATCC29213, strain 115561C): 0.25 µg/mL (≈ 0.764 µM)
MIC (ATCC29213, strain 115584D): 0.25 µg/mL (≈ 0.764 µM)
MIC (ATCC29213, strain 115628T): 0.25 µg/mL (≈ 0.764 µM)
MIC (ATCC29213, strain 115690C): 0.25 µg/mL (≈ 0.764 µM)
MIC (ATCC29213, strain 115691T): 0.5 µg/mL (≈ 1.53 µM)
MIC (ATCC29213, strain 115740E): 0.5 µg/mL (≈ 1.53 µM)
MIC (ATCC29213, strain 115810E): 0.25 µg/mL (≈ 0.764 µM)
MIC (ATCC29213, strain 115903T): 0.5 µg/mL (≈ 1.53 µM)
MIC (ATCC29213, strain 116122T): 0.25 µg/mL (≈ 0.764 µM)
MIC (ATCC29213, strain ATCC 29213): 0.5 µg/mL (≈ 1.53 µM)
MIC (ATCC29213, strain E5-1029252): 0.25 µg/mL (≈ 0.764 µM)
MIC (ATCC29213, strain E5-1029558): 0.25 µg/mL (≈ 0.764 µM)
MIC (ATCC29213, strain E5-1030440): 0.25 µg/mL (≈ 0.764 µM)
MIC (ATCC29213, strain E5-1030469): 0.25 µg/mL (≈ 0.764 µM)
MIC (ATCC29213, strain E5-1030472): 0.5 µg/mL (≈ 1.53 µM)
MIC (ATCC29213, strain E5-1030482): 0.125 µg/mL (≈ 0.382 µM)
MIC (ATCC29213, strain E5-1033076 (first line, r202)): 0.5 µg/mL (≈ 1.53 µM)
MIC (ATCC29213, strain E5-1033076 (second line, r203)): 0.5 µg/mL (≈ 1.53 µM)
MIC (ATCC29213, strain E5-1033088): 0.25 µg/mL (≈ 0.764 µM)
MIC (ATCC29213, strain E5-1033091): 0.5 µg/mL (≈ 1.53 µM)
MIC (ATCC29213, strain E5-1035277): 0.5 µg/mL (≈ 1.53 µM)
MIC (ATCC29213, strain E5-1035284): 0.25 µg/mL (≈ 0.764 µM)
MIC (ATCC29213, strain E5-1035775): 0.5 µg/mL (≈ 1.53 µM)
MIC (ATCC29213, strain E5-1035779): 0.5 µg/mL (≈ 1.53 µM)
MIC (ATCC29213, strain E5-1037958): 0.5 µg/mL (≈ 1.53 µM)
MIC (ATCC29213, strain E5-1037971): 0.25 µg/mL (≈ 0.764 µM)
MIC (ATCC29213, strain E5-1038279): 0.5 µg/mL (≈ 1.53 µM)
MIC (ATCC29213, strain E5-1038286): 0.25 µg/mL (≈ 0.764 µM)
MIC (ATCC29213, strain E5-1038294): 0.5 µg/mL (≈ 1.53 µM)
MIC (ATCC29213, strain E5-1039684): 0.5 µg/mL (≈ 1.53 µM)
MIC (ATCC29213, strain E5-1039697): 0.25 µg/mL (≈ 0.764 µM)
MIC (ATCC29213, strain E5-1041977): 0.5 µg/mL (≈ 1.53 µM)
MIC (ATCC29213, strain E5-1041979): 0.5 µg/mL (≈ 1.53 µM)
MIC (ATCC29213, strain E5-1041980): 0.25 µg/mL (≈ 0.764 µM)
MIC (ATCC29213, strain E5-1041987): 0.5 µg/mL (≈ 1.53 µM)
MIC (ATCC29213, strain E5-1043184): 0.5 µg/mL (≈ 1.53 µM)
MIC (ATCC29213, strain E5-1043668): 0.25 µg/mL (≈ 0.764 µM)
MIC (ATCC29213, strain E5-1045179): 0.25 µg/mL (≈ 0.764 µM)
MIC (ATCC29213, strain E5-1046019): 0.25 µg/mL (≈ 0.764 µM)
MIC (ATCC29213, strain E5-1046020): 0.5 µg/mL (≈ 1.53 µM)
MIC (ATCC29213, strain E5-1046039): 0.25 µg/mL (≈ 0.764 µM)
MIC (ATCC29213, strain E5-1046070): 0.25 µg/mL (≈ 0.764 µM)
MIC (ATCC29213, strain E5-1046074): 0.25 µg/mL (≈ 0.764 µM)
MIC (ATCC29213, strain E5-1046085): 0.5 µg/mL (≈ 1.53 µM)
MIC (ATCC29213, strain E5-1046096): 0.5 µg/mL (≈ 1.53 µM)
MIC (ATCC29213, strain E5-1046296): 0.5 µg/mL (≈ 1.53 µM)
MIC (ATCC29213, strain E5-1046297): 0.5 µg/mL (≈ 1.53 µM)
MIC (ATCC29213, strain E5-1046298): 0.25 µg/mL (≈ 0.764 µM)
MIC (ATCC29213, strain E5-1046723): 0.25 µg/mL (≈ 0.764 µM)
MIC (ATCC29213, strain E5-1047585): 0.25 µg/mL (≈ 0.764 µM)
MIC (ATCC29213, strain E5-1047606): 0.5 µg/mL (≈ 1.53 µM)
MIC (ATCC29213, strain E5-1047924): 0.5 µg/mL (≈ 1.53 µM)
MIC (ATCC29213, strain E5-1048204): 0.25 µg/mL (≈ 0.764 µM)
MIC (ATCC29213, strain E5-1048428): 0.25 µg/mL (≈ 0.764 µM)
MIC (ATCC29213, strain E5-1048654): 0.25 µg/mL (≈ 0.764 µM)
MIC (ATCC29213, strain E5-1048670): 0.125 µg/mL (≈ 0.382 µM)
MIC (ATCC29213, strain EEFIC 01): 0.25 µg/mL (≈ 0.764 µM)
MIC (ATCC29213, strain EEFIC 02): 0.25 µg/mL (≈ 0.764 µM)
MIC (ATCC29213, strain K000772): 0.25 µg/mL (≈ 0.764 µM)
MIC (ATCC29213, strain K000796): 0.25 µg/mL (≈ 0.764 µM)
MIC (ATCC29213, strain K000863): 0.25 µg/mL (≈ 0.764 µM)
MIC (ATCC29213, strain K000864): 0.25 µg/mL (≈ 0.764 µM)
MIC (ATCC29213, strain K000866): 0.25 µg/mL (≈ 0.764 µM)
MIC (ATCC29213, strain K115498): 0.25 µg/mL (≈ 0.764 µM)
MIC (ATCC29213, strain K115688): 0.25 µg/mL (≈ 0.764 µM)
MIC (ATCC29213, strain K115689): 0.25 µg/mL (≈ 0.764 µM)
MIC (ATCC29213, strain R000019): 0.5 µg/mL (≈ 1.53 µM)
MIC (ATCC29213, strain R000020): 0.5 µg/mL (≈ 1.53 µM)
MIC (ATCC29213, strain R000024): 0.25 µg/mL (≈ 0.764 µM)
MIC (ATCC29213, strain U115579): 0.25 µg/mL (≈ 0.764 µM)
MIC (ATCC 29213 / MRSA, strain MRSA 01): 0.25 µg/mL (≈ 0.764 µM)
MIC (ATCC 29213 / MRSA, strain MRSA 02): 0.25 µg/mL (≈ 0.764 µM)
MIC (ATCC 29213 / MRSA, strain MRSA 03): 0.25 µg/mL (≈ 0.764 µM)
MIC (ATCC 29213 / MRSA, strain MRSA 04): 0.25 µg/mL (≈ 0.764 µM)
MIC (ATCC 29213 / MRSA, strain MRSA 05): 0.25 µg/mL (≈ 0.764 µM)
MIC (ATCC 29213 / MRSA, strain MRSA 06): 0.25 µg/mL (≈ 0.764 µM)
MIC (ATCC 29213 / MRSA, strain MRSA 07): 0.125 µg/mL (≈ 0.382 µM)
MIC (ATCC 29213 / MRSA, strain MRSA 08): 0.25 µg/mL (≈ 0.764 µM)
MIC (ATCC 29213 / MRSA, strain MRSA 09): 0.125 µg/mL (≈ 0.382 µM)
MIC (ATCC 29213 / MRSA, strain MRSA 10): 0.25 µg/mL (≈ 0.764 µM)
MIC (ATCC 29213 / MRSA, strain MRSA 11): 0.25 µg/mL (≈ 0.764 µM)
